Data from PMC8000041, “New Insights into the Metabolism of the Flavanones Eriocitrin and Hesperidin: A Comparative Human Pharmacokinetic Study” (Antioxidants, 2021).
Read-outs that look alike come from different tables or passages of the source.

Tests used:
[1] = Urinary excretion of flavanone-derived metabolites after single intake of lemon or orange extract (UPLC-ESI-QTOF-MS); type: in vivo, human; conditions: for Urinary excretion F1: urine fraction 0-4 h; for Urinary excretion F1 / Urinary excretion Total F / Urinary excretion F2 / Urinary excretion F3 / Urinary excretion F4: mean ± SD; for Urinary excretion Total F: sum of fractions F1-F4 (24 h); for Urinary excretion F2: urine fraction 4-8 h; for Urinary excretion F3: urine fraction 8-10 h; for Urinary excretion F4: urine fraction 10-24 h; for Occurrence Urine LE (number of volunteers in whom the metabolite was detected): after consuming lemon extract; for Occurrence Urine LE (number of volunteers in whom the metabolite was detected) / Occurrence Urine OE (number of volunteers in whom the metabolite was detected): n = 16 volunteers; for Occurrence Urine OE (number of volunteers in whom the metabolite was detected): after consuming orange extract
Description: Secondary endpoints involved the evaluation of post-prandial changes in several biomarkers dealing with metabolism, inflammation, and oxidative stress after a high-fat-high-sugars meal. The design was a randomized pharmacokinetic, double-blind, crossover, single-dose trial consisted of 2 test-phases. The volunteers were randomly allocated into two groups using a computerized random number list. Each group consumed one of the citrus extracts by following a test-phase that lasted for 1 day for blood sampling and urine collection, a 2-week washout period between each test phase, and crossover before consuming the other extract. The volunteers were instructed to avoid the consumption of flavanone-containing products, from a list provided by the researchers, for 1 week before the study and during the wash-out phase (citrus fruit juices, tomatoes, tomato-based sauces (like ‘ketchup’), peppers, almonds, etc.). […] The 3 capsules provided a total of 1.95 g orange extract, containing 260 mg hesperidin, and 3.1 g lemon extract, containing 260 mg eriocitrin. […] Untreated urine samples were aliquoted and frozen at −80 °C for up to 4 weeks until analyses, avoiding freeze-thaw cycles to avoid metabolites’ deconjugation. Moreover, three measurements of blood pressure and heart rate were taken before each time-point of blood withdrawal. […] A previously validated method for analyzing phenolic metabolites in biological samples, including flavanone-derived metabolites, was used. […] After centrifugation at 14,000× g for 10 min at 4 °C, the supernatant was evaporated in a speed vacuum concentrator. Finally, samples were re-suspended in 100 µL of methanol, filtered through a 0.22 µm cellulose filters before analysis by UPLC- ESI-QTOF-MS. […] A targeted screening strategy was applied to identify metabolites that could be present after consuming the citrus extracts. Twenty-eight possible compounds were browsed in all the samples. The list of compounds included the polyphenols present in the extracts, with particular focus on the flavanone rutinosides hesperidin and eriocitrin, their respective aglycones hesperetin, and eriodictyol, as well as their derived phase-II conjugates (glucuronides, sulfates, sulfoglucuronides, etc.). The exact mass of each proposed compound was extracted using an extraction window of 0.01 m/z. The metabolites hesperetin 7-O-glucuronide, hesperetin 3′-O-glucuronide, hesperetin 3-O-sulfate, naringenin 4′-O-glucuronide, and naringenin 7′-O-glucuronide were quantified with their corresponding standards. […] The parent phenolic compounds were quantified with their corresponding standards. In the case of some relevant conjugated metabolites, which standards were not available (eriodictyol and homoeriodictyol conjugates), their quantification was achieved by using relative response factors (RRFs) as previously described. Briefly, RRFs are useful to check the different responses of metabolites in the mass spectrometer vs. their UV signal. While the ionization response of free vs. conjugated forms is usually very different, their UV signal response is quite similar. To this purpose, we injected in a HPLC-DAD-ESI-Q (MS) the plasma samples (n = 5) with the highest concentrations of those conjugated metabolites. Concentrations were calculated by integrating the area from their corresponding UV peaks and compared with the UV peak area of a known concentration of their corresponding available parent compounds (eriodictyol and homoeriodictyol). The concentrations calculated were used to compare the MS response for each conjugated-aglycone pair.

[2] = Plasma metabolites and pharmacokinetics after single intake of lemon or orange extract (UPLC-ESI-QTOF-MS, non-compartmental analysis); type: in vivo, human; conditions: for Occurrence Plasma LE (number of volunteers in whom the metabolite was detected): after consuming lemon extract; for Occurrence Plasma LE (number of volunteers in whom the metabolite was detected) / Occurrence Plasma OE (number of volunteers in whom the metabolite was detected): n = 16 volunteers; for Occurrence Plasma OE (number of volunteers in whom the metabolite was detected): after consuming orange extract; for Tmax / Cmax / AUC(0-t): mean ± SD; for AUC(0-t): read-out: AUC0-t
Description: Secondary endpoints involved the evaluation of post-prandial changes in several biomarkers dealing with metabolism, inflammation, and oxidative stress after a high-fat-high-sugars meal. The design was a randomized pharmacokinetic, double-blind, crossover, single-dose trial consisted of 2 test-phases. The volunteers were randomly allocated into two groups using a computerized random number list. Each group consumed one of the citrus extracts by following a test-phase that lasted for 1 day for blood sampling and urine collection, a 2-week washout period between each test phase, and crossover before consuming the other extract. The volunteers were instructed to avoid the consumption of flavanone-containing products, from a list provided by the researchers, for 1 week before the study and during the wash-out phase (citrus fruit juices, tomatoes, tomato-based sauces (like ‘ketchup’), peppers, almonds, etc.). […] The 3 capsules provided a total of 1.95 g orange extract, containing 260 mg hesperidin, and 3.1 g lemon extract, containing 260 mg eriocitrin. […] Plasma samples were obtained by centrifugation of peripheral venous blood at 14,000× g for 15 min at 4 °C and immediately frozen at −80 °C. Glucose, total cholesterol, HDL-cholesterol, LDL-cholesterol, triglycerides, insulin, homeostatic model assessment insulin resistance (HOMA-IR), gamma-glutamyl transferase (GGT), and alanine aminotransferase (ALT) were determined as previously reported. […] A previously validated method for analyzing phenolic metabolites in biological samples, including flavanone-derived metabolites, was used. […] After centrifugation at 14,000× g for 10 min at 4 °C, the supernatant was evaporated in a speed vacuum concentrator. Finally, samples were re-suspended in 100 µL of methanol, filtered through a 0.22 µm cellulose filters before analysis by UPLC- ESI-QTOF-MS. A targeted screening strategy was applied to identify metabolites that could be present after consuming the citrus extracts. Twenty-eight possible compounds were browsed in all the samples. The list of compounds included the polyphenols present in the extracts, with particular focus on the flavanone rutinosides hesperidin and eriocitrin, their respective aglycones hesperetin, and eriodictyol, as well as their derived phase-II conjugates (glucuronides, sulfates, sulfoglucuronides, etc.). The exact mass of each proposed compound was extracted using an extraction window of 0.01 m/z. The metabolites hesperetin 7-O-glucuronide, hesperetin 3′-O-glucuronide, hesperetin 3-O-sulfate, naringenin 4′-O-glucuronide, and naringenin 7′-O-glucuronide were quantified with their corresponding standards. […] The parent phenolic compounds were quantified with their corresponding standards. In the case of some relevant conjugated metabolites, which standards were not available (eriodictyol and homoeriodictyol conjugates), their quantification was achieved by using relative response factors (RRFs) as previously described. Briefly, RRFs are useful to check the different responses of metabolites in the mass spectrometer vs. their UV signal. While the ionization response of free vs. conjugated forms is usually very different, their UV signal response is quite similar. To this purpose, we injected in a HPLC-DAD-ESI-Q (MS) the plasma samples (n = 5) with the highest concentrations of those conjugated metabolites. Concentrations were calculated by integrating the area from their corresponding UV peaks and compared with the UV peak area of a known concentration of their corresponding available parent compounds (eriodictyol and homoeriodictyol). The concentrations calculated were used to compare the MS response for each conjugated-aglycone pair. Statistical analyses were carried out using the SPSS Software, version 23.0 (SPSS Inc., Chicago, IL, USA). Data are expressed as mean ± SD. The empirical distribution of data with the normality assumption was tested with the Shapiro-Wilk test. […]

[3] = lemon extract (3.1 g, 260 mg eriocitrin)
[4] = human, oral, 3.1 g, after lemon extract
[5] = human, oral, 3.1 g, after lemon extract, read-out: Tmax
[6] = orange extract (1.95 g, 260 mg hesperidin)
[7] = human, oral, 1.95 g, after orange (hesperidin) extract

Compound | Urinary excretion F1 [1, 3] | Urinary excretion Total F ([1]; lemon extract) | Urinary excretion F2 ([1]; lemon extract) | Urinary excretion F3 ([1]; lemon extract) | Urinary excretion F4 ([1]; lemon extract) | Urinary excretion Total F ([1]; orange extract) | Urinary excretion F2 ([1]; orange extract) | Urinary excretion F3 ([1]; orange extract) | Urinary excretion F4 ([1]; orange extract) | Occurrence Urine LE (number of volunteers in whom the metabolite was detected) [1] | Occurrence Urine OE (number of volunteers in whom the metabolite was detected) [1] | Occurrence Plasma LE (number of volunteers in whom the metabolite was detected) [2] | Occurrence Plasma OE (number of volunteers in whom the metabolite was detected) [2] | Tmax ([2]; after lemon extract) | Cmax [2, 4] | AUC(0-t) [2, 4] | Tmax [2, 5] | Urinary excretion F1 [1, 6] | also measured
O=C1CC(c2ccc(O)c(O)c2)Oc2cc(OC3OC(C(=O)O)C(O)C(O)C3O)cc(O)c21 (stereo not drawn) [M1, Eriodictyol glucuronide-1] | 3.2 ± 5.9 µg/mg creatinine | 18.0 ± 28.4 µg/mg creatinine | 9.6 ± 15.5 µg/mg creatinine | 4.5 ± 6.2 µg/mg creatinine | 0.7 ± 0.7 µg/mg creatinine | 0.6 ± 0.4 µg/mg creatinine | 0.4 ± 0.3 µg/mg creatinine | 0.1 ± 0.1 µg/mg creatinine | 0.05 ± 0.05 µg/mg creatinine | 16 | 5 | 16 | 3 | 5.9 ± 2.4 h | 104 ± 85.8 nM | 0.283 ± 0.271 µM·h | 6 h |  | 
O=C1CC(c2ccc(O)c(OC3OC(C(=O)O)C(O)C(O)C3O)c2)Oc2cc(O)cc(O)c21 (stereo not drawn) [M2, Eriodictyol glucuronide-2] | 6.4 ± 11.0 µg/mg creatinine | 46.6 ± 53.6 µg/mg creatinine | 18.0 ± 17.2 µg/mg creatinine | 18.1 ± 19.7 µg/mg creatinine | 4.2 ± 5.7 µg/mg creatinine | 2.5 ± 4.9 µg/mg creatinine | 0.5 ± 0.8 µg/mg creatinine | 0.5 ± 0.6 µg/mg creatinine | 1.4 ± 3.4 µg/mg creatinine | 16 | 10 | 16 | 7 | 5.9 ± 2.4 h | 871 ± 868 nM | 3.22 ± 4.12 µM·h | 6 h | 0.1 ± 0.1 µg/mg creatinine | 
O=C1CC(c2ccc(O)cc2)Oc2cc(OC3OC(C(=O)O)C(O)C(O)C3O)cc(O)c21 (stereo not drawn) [M3, Naringenin 7-O-glucuronide] | 1.0 ± 0.7 µg/mg creatinine | 5.7 ± 6.9 µg/mg creatinine | 2.6 ± 4.0 µg/mg creatinine | 1.7 ± 1.9 µg/mg creatinine | 0.3 ± 0.3 µg/mg creatinine | 0.7 ± 1.5 µg/mg creatinine | 0.2 ± 0.6 µg/mg creatinine | 0.2 ± 0.2 µg/mg creatinine | 0.2 ± 0.3 µg/mg creatinine | 16 | 16 | 16 | 14 | 5.4 ± 2.5 h | 56.7 ± 44.2 nM | 0.203 ± 0.187 µM·h | 5.5 h | 0.1 ± 0.1 µg/mg creatinine | Tmax ([2]; after orange (hesperidin) extract): 7.3 ± 2.2 h; Cmax [2, 7]: 4.7 ± 3.6 nM; AUC(0-t) [2, 7]: 0.0188 ± 0.019 µM·h; Tmax ([2]; human, oral, 1.95 g, after orange (hesperidin) extract, read-out: Tmax): 7.5 h
O=C1CC(c2ccc(OC3OC(C(=O)O)C(O)C(O)C3O)c(O)c2)Oc2cc(O)cc(O)c21 (stereo not drawn) [M4, Eriodictyol glucuronide-3] | 9.4 ± 16.9 µg/mg creatinine | 75.1 ± 128 µg/mg creatinine | 33.8 ± 64.1 µg/mg creatinine | 27.7 ± 40.1 µg/mg creatinine | 4.3 ± 6.4 µg/mg creatinine | 3.4 ± 6.2 µg/mg creatinine | 0.5 ± 0.9 µg/mg creatinine | 0.7 ± 0.7 µg/mg creatinine | 2.1 ± 4.5 µg/mg creatinine | 16 | 11 | 16 | 7 | 5.9 ± 2.6 h | 639 ± 802 nM | 2.29 ± 3.49 µM·h | 6 h | 0.1 ± 0.2 µg/mg creatinine | 
